{"source": "patent US8420606B2", "about": "“Method of utilizing physiological activity of rare saccharide and composition containing rare saccharide” (priority 2002, dated 2013)", "key": {"HL-60": {"test_system": "HL-60", "test": "blood-system cancer cell strain proliferation, Coulter Counter, HL60", "type": "cell-based", "conditions": "for HL60 cell number relative to glucose: seventh day, glucose = 100%; for HL60 proliferation inhibitory effect: 0.05-50 mM, 7 days, D-glucose control", "experimental": "(2) Method: Total 6 kinds of cell strains, i.e., Myeloid (HL-60, THP-1, KG-1), T-cell (MT-2), and B-Cell (Daudi, KS-1), and 3 kinds of rare saccharides (i.e., D-psicose, D-altrose, and D-allose), were employed. The culture medium and the cells were prepared to be 1 mL in total and 1×10^5 in number, respectively. Then, the cell number at each of fourth day and seventh day was counted by using a Coulter Counter. Each rare saccharide was added at concentrations of 0.05, 0.5, 5 and 50 mM, while D-glucose was used as a control.\nCulture Medium: FBS 10% added RPMI1460\nCultivation Conditions: 37° C., 5% CO2\nCultivation Vessel: FALCON, MULTIWELL, 12 wells\nNumber of Cultivation Days: 7 days\nSaccharides Concentration: 0.05, 0.5, 5, 50 mM"}, "CINC-1 mRNA": {"test_system": "CINC-1 mRNA", "test": "rat renal ischemia-reperfusion, northern blotting", "type": "in vivo", "conditions": "400 mg/kg into the vein 30 minutes before clamping, 45 minutes ischemia, reperfusion for 2 hours, preliminary", "experimental": "Target . . . Male rat with weight of about 300 g. Experiment method . . . The renal ischemia model was prepared after putting the rat under anesthesia with Nembutal. Renal ischemia . . . After picking up the right kidney, the left renal blood vessel was clamped for 45 minutes. Drugs used . . . D-allose and D-psicose (400 mg/kg per drug) were administrated into the vein 30 minutes before clamping for renal ischemia. Measurement item . . . An influence of each drug upon appearance of a trouble factor, i.e., […] neutrophil chemoattractant (CINC)-1 mRNA, was measured (after reperfusion for 2 hours)."}, "[1]": {"test_system": "Hepatic cancer cells (HepG2)", "test": "proliferation of cultured cells, MTT method, HepG2", "type": "cell-based, human", "conditions": "saccharide 50 mM, 4 to 5 days", "experimental": "(§1) Various kinds of rare saccharides were added at a concentration of 50 mM to culture media under the following conditions, and an influence of each rare saccharide upon the progress of proliferation of cancer cell strains was examined.\n(§2) (1) Target cells to which the rare saccharides were added: Hepatic cancer cells (HepG2), uterine cancer cells (He1a), ovary cancer cells (OVCAR3), and skin keratinocyte (HaCaT) were selected as target cells to which the rare saccharides were added.\n(§3) (2) Rare saccharides added: In addition to D-allose, glucose and D-altros as rare saccharides belonging to ketose were added, as other comparative saccharides, to the addition target cells. Also, D-fructose was employed as a control.\n(§4) (3) Experiment method: A number 3,000-5,000 of addition target cells per type were inoculated into a multi-well plastic dish (hereinafter referred to as a “well”) having 96 wells, and were cultured for 4 to 5 days in a culture medium supplemented with 5 to 10% of Fetal Bovine Serum (FBS) depending on the cell types. D-Allose, D-glucose and D-altros were each added at concentration of 50 mM to the addition target cells per type. Similarly, D-fructose as a control was added at a concentration of 50 mM. To examine the influence upon the cell proliferation, the cell number was measured in units of 24 hours by using the MTT method described below.\n(1) Preparation of reagents: A predetermined amount of MTT (tetrazolium salt) was dissolved in PBS(−) sterilized in an autoclave to obtain an MTT solution through filtering and sterilization. An acidic solution was prepared by adding 50 mL of N,N-dimethylformaldehyde and water to a predetermined amount of (20 g) of SDS, thereby obtaining a 100 mL of solution. […]\n(2) Test method: The cells were treated with TEP to prepare a cell suspension liquid. […] The absorbance of the liquid was measured at a wavelength of 570 to 600 nm by using a spectrophotometer. After dissolving the colored substance (formazan) in the acid solution, the absorbance can be measured directly by a plate reader."}, "[2]": {"test_system": "ovary cancer cells (OVCAR3)", "test": "proliferation of cultured cells, MTT method, OVCAR3", "type": "cell-based", "conditions": "for proliferation of OVCAR3 cells (cell number over time): saccharide 50 mM, 4 to 5 days, MTT", "experimental": "as §1, §2, §3, §4\n(1) Preparation of reagents: A predetermined amount of MTT (tetrazolium salt) was dissolved in PBS(−) sterilized in an autoclave to obtain an MTT solution through filtering and sterilization. An acidic solution was prepared by adding 50 mL of N,N-dimethylformaldehyde and water to a predetermined amount of (20 g) of SDS, thereby obtaining a 100 mL of solution. About […] of 1N hydrochloric acid was added to the solution for adjustment of a pH-value to 4.7. The solution was preserved at room temperature and warmed up to 37° C. just before the use.\n(2) Test method: The cells were treated with TEP to prepare a cell suspension liquid. This cell suspension liquid was pipetted in a predetermined cell-density (300 to 52000 cells/well) to each well (96-well plate: 0.1 mL of culture medium per well). The saccharide as a drug was added in a predetermined amount to each well, followed by cultivation for a whole day and night in a CO2 incubator. Then, 0.5 mg/mL of the MTT solution was added and the resulting culture was incubated for 4 hours in the incubator. Thereafter, the culture medium was completely removed. Then, in a room kept at 37° C., an acid solution was added in amount of 0.1 mL/well. The well plate was placed on a micro-plate mixer and shaken at 37° C. for 20 minutes to dissolve a colored substance (namely, to dissolve “formazan” in the acid solution). The absorbance of the liquid was measured at a wavelength of 570 to 600 nm by using a spectrophotometer. After dissolving the colored substance (formazan) in the acid solution, the absorbance can be measured directly by a plate reader.\n(1) Experiment method: The ovary cancer cells (OVCAR3) were selected as target cells to which a rare saccharide was added, and D-allose as the saccharide was added at concentrations of 1 mM, 5 mM, 10 mM, 20 mM, 50 mM and 100 mM. The experimental conditions, such as the method of culturing the ovary cancer cells (OVCAR3) and the method of measuring the cell number (MTT method), were the same as those in Example 1."}, "[3]": {"test": "intravenous grape sugar load test (IVGTT)", "type": "in vivo, rat", "conditions": "0.5 g/kg intravenous, rats fasted 16 hours", "experimental": "(2) Method: 1) Intravenous grape sugar load test (IVGTT) . . . IVGTT was conducted on 8-week old male SD rats by inserting a catheter through the jugular vein. A rare saccharide was administrated to 3 rats, and glucose was administrated to other 3 rats.\nPerform intravenous injection (IV) at 0.5 g/kg (i.e., 0.5 g/1000 g=500 mg/1000 g=0.5 mg/g).\nPrepare rare-saccharide and glucose solutions in concentration of 0.5 g/mL (i.e., 0.5 g/1000 ul=500 mg/1000 ul=0.5 mg/ul). Prepare 2 mL of solution for each concentration.\nIntravenously inject 200 ul of the solution for a 200 g rat.\nIntravenously inject 250 ul of the solution for a 250 g rat.\nInject 300 ul of physiological saline after the intravenous injection.\nCollect 150 ul of blood sample.\nAbstain each rat from food for 16 hours as pretreatment. Allow to drink water.\nCollect blood at 9 points in time, i.e., 0, 5, 10, 15, 20, 25, 30, 45 and 60 minutes."}}, "note": "Entries after “also recorded” stand apart in the source; their conditions may differ."}
{"smiles": "O=C[C@H](O)[C@H](O)[C@H](O)[C@H](O)CO", "note": "[D-allose]", "values": [{"measurement": "HL60 cell number relative to glucose", "setting": "HL-60; 0.05 mM", "value": 62.6, "unit": "%"}, {"measurement": "HL60 cell number relative to glucose", "setting": "HL-60; 0.5 mM", "value": 67.7, "unit": "%"}, {"measurement": "HL60 cell number relative to glucose", "setting": "HL-60; 5 mM", "value": 41.5, "unit": "%"}, {"measurement": "HL60 proliferation inhibitory effect", "setting": "HL-60", "value": "having the inhibitory effect"}, {"measurement": "HL60 proliferation inhibitory effect", "setting": "HL-60; listed as allose", "value": "showed an inhibitory effect"}, {"measurement": "HL60 cell number relative to glucose", "setting": "HL-60; 50 mM", "value": 30.7, "unit": "%"}, {"measurement": "appearance rate of CINC-1 mRNA", "setting": "CINC-1 mRNA", "value": "suppressed"}, {"measurement": "appearance rate of CINC-1 mRNA", "setting": "CINC-1 mRNA; listed as allose", "value": "reduced"}, {"measurement": "proliferation of HepG2 cells (cell number over time)", "setting": "[1]", "value": "strongly inhibited proliferation; also recorded: has a proliferation inhibitory effect"}, {"measurement": "concentration at which the cancer-cell proliferation inhibitory effect was first found", "setting": "[2]; OVCAR3, 1, 5, 10, 20, 50, 100 mM tested, 10% fetal bovine serum", "value": 10, "unit": "mM"}, {"measurement": "dead cells (microscope, trypan blue-exclusion assay)", "setting": "[2]; OVCAR3 cells to which D-allose was applied", "value": "dead cells hardly existed"}, {"measurement": "proliferation of OVCAR3 cells (cell number over time)", "setting": "[2]", "value": "strongly inhibited proliferation; also recorded: has a proliferation inhibitory effect"}]}
{"smiles": "O=C[C@H](O)[C@@H](O)[C@H](O)[C@H](O)CO", "note": "[D-glucose, reference compound]", "values": [{"measurement": "blood sugar value in IVGTT", "setting": "[3]", "value": "increased"}, {"measurement": "insulin concentration in the blood during IVGTT", "setting": "[3]", "value": "a rise of the insulin concentration was found"}, {"measurement": "proliferation of HepG2 cells (cell number over time)", "setting": "[1]", "value": "hardly found"}, {"measurement": "proliferation of OVCAR3 cells (cell number over time)", "setting": "[2]", "value": "acted so as to promote the proliferation of the cancer cells"}]}
{"smiles": "O=C(CO)[C@H](O)[C@H](O)[C@H](O)CO", "note": "[D-psicose]", "values": [{"measurement": "blood sugar value in IVGTT", "setting": "[3]", "value": "no rise of the blood sugar value was found"}, {"measurement": "insulin concentration in the blood during IVGTT", "setting": "[3]", "value": "influences upon the insulin secretion were not found"}, {"measurement": "HL60 cell number relative to glucose", "setting": "HL-60; 0.05 mM", "value": 84.7, "unit": "%"}, {"measurement": "HL60 cell number relative to glucose", "setting": "HL-60; 0.5 mM", "value": 80.7, "unit": "%"}, {"measurement": "HL60 cell number relative to glucose", "setting": "HL-60; 5 mM", "value": 84.2, "unit": "%"}, {"measurement": "HL60 proliferation inhibitory effect", "setting": "HL-60", "value": "showed an inhibitory effect"}, {"measurement": "HL60 cell number relative to glucose", "setting": "HL-60; 50 mM", "value": 93.6, "unit": "%"}, {"measurement": "appearance rate of CINC-1 mRNA", "setting": "CINC-1 mRNA", "value": "suppressed"}, {"measurement": "appearance rate of CINC-1 mRNA", "setting": "CINC-1 mRNA; listed as psicose", "value": "reduced"}]}
